Reference: patent US20140155445A1, “Compounds and Methods for Treating Cancer and Diseases of the Central Nervous System” (Osta Biotechnologies Inc., priority 2007, published 2014)
Entries after “also recorded” stand apart in the source; their conditions may differ.

Legend:
[1] = tested on: HCT-116 colorectal carcinoma; experiment: Colorectal carcinoma model HCT-116 in SCID mice; format: in vivo, human
Description: (§1) Control groups received the vehicle alone.

[2] = tested on: SKMEL 28-V+ cells (human melanoma); experiment: Melanoma model SKMEL-V+ in SCID mice (combination study); format: in vivo; details: QC-56 60 mg/kg/ip; Dacarbazine 55 mg/kg
Procedure: SKMEL 28-V+ cells (human melanoma). These cells were originally from the ATCC and then engineered to overexpress VEGF. […] The cells were tested to be free of mycoplasma.
as §1

SKMEL-V+ cells = experiment: Melanoma efficacy study of QC-199, SKMEL-V+ cells s.c. in Scid mice; format: in vivo, human; details: 10 mg/kg i.v. injection, 2 cycles, d1, 3, 5 per cycle
Procedure: BD PharMingen, San Diego, Calif.). Cryostat sections were used for CD31 staining. […] Sections were rehydrated in PBS and then blocked with 5% normal goat serum for 1 h. The sections were then incubated overnight at 4° C. with CD31 antibody diluted 1:25 in 3% BSA-PBS. […] Sections were counterstained with Harris' hematoxylin and mounted. Slides were analyzed by conventional light microscopy and photographed using color slides (Eastman Kodak, Rochester, N.Y.). Balb/c Scid mice, 6 week-old, were obtained from Charles River Laboratories, St. Zotique, PQ, Canada. The mice weighed 18-22 g. The experiments were approved by the Animal Care Committee, McGill University, Montreal. The animals were housed in individual cages (4 per cage) and were fed standard rodent chow and water ad libitum. […] When the tumors become palpable (size of a rice), mice weights were measured with a digital balance accurate to 0.05 g. […] For the infusion, mice were anesthetized using isoflurane-based system ([…] COMPACT NRB, 3975-0800-000). For the infusion, a mini pump (NE-1800, New Era Pump Systems, Inc.) was used to infuse the compound via the tail vein during a 2 h period. […] At experiment termination, mice were anesthetized with isoflurane and sacrificed by cervical dislocation. Tumors were dissected and tumor weights were measured using a digital balance.

[3] = tested on: hHO-1 transfected primary rat astroglial cultures; experiment: Protein carbonyl ELISA in hHO-1-transfected primary rat astroglia (whole-cell and mitochondrial compartments); format: cell-based
Procedure: Cells were grown in Ham's F12 and high glucose DMEM (50:50 v/v) supplemented with 10 mM HEPES, 5% heat-inactivated horse serum, 5% heat-inactivated fetal bovine serum, and penicillin-streptomycin (50 U/mL and 50 μg/mL, respectively).
(§2) Upon reaching >90% confluence, 1×10^6 cells were transiently transfected with 4.0 μg of plasmid DNA-Lipofectamine 2000 complex using Lipofectamine 2000 method according to manufacturer instructions (Invitrogen). […] 12 μg of plasmid DNA and 16 μl of Lipofectamine 2000 reagent were diluted in 1.5 mL opti-MEM I reduced serum medium and incubated for 5 minutes at room temperature with gentle mixing. The two solutions were combined, incubated at room temperature for 20 minutes to promote formation of DNA-lipid complexes and administered to the cells. 2 mL opti-MEM I reduced serum medium was added to the flasks to ensure coverage of the monolayer by the transfection mixture. Following incubation for 6 hours at 37° C., the transfection mixture was replaced with 10 mL of complete media without antibiotics.
The cells were sonicated (Sonics & Materials, Danbury, Conn.) at a power level of 50 for 3×20 s in a cooled water bath. […] Whole-cell and mitochondrial preparations were assayed for protein carbonyls as described below.
Protein carbonyls were reacted with 2,4-dinitrophenylhydrazine (DNP) and the hydrazone adducts were detected with anti-DNP antisera. Quantification was achieved by comparison with oxidized BSA standards. Oxidized (carbonylated) BSA was prepared by reacting natural BSA (at 50 mg/mL in PBS) with hypochlorous acid (5 mM) for 1 h at 37° C., followed by overnight dialysis against PBS at 4° C. […] The pellet was resuspended in 2 mL of same buffer, sonicated on ice 2×15 s at 20 W and centrifuged for 20 min at 4° C. at 1,303×g. Protein concentration of supernatant was measured with the RC DC protein assay based on the Lowry protocol (Bio-Rad Laboratories, Hercules, Calif.). All samples were adjusted to 4.0 mg protein/mL. […] Five microliters aliquots of each reaction mixture were mixed with 1 mL PBS and 200 μL replicates were added per well to 96-well immunoplates and incubated overnight at 4° C. After washing with PBS, nonspecific binding sites were blocked with 0.1% Tween 20 in PBS. […] A 6-point standard curve of reduced and oxidized BSA was generated for each plate analyzed. Specific absorbance for each sample was calculated by subtracting basal absorbance of the DNP reagent from the total absorbance.

[4] = molecular target: T1, human HO-1 (hHO-1) in transfected astroglia (Homo sapiens, UniProt P09601); experiment: HO enzyme activity (bilirubin formation) in hHO-1-transfected astrocytes; format: cell-based
T1 construct: containing the entire protein-coding region (866 bp) of the human HO-1 gene; expressed in transfected cells; host or cells: primary rat astrocytes, transient transfection with pcDNA3.1/Zeo.CMV.Flag.hHO-1 (Lipofectamine 2000)
T1 sequence (P09601 1-288): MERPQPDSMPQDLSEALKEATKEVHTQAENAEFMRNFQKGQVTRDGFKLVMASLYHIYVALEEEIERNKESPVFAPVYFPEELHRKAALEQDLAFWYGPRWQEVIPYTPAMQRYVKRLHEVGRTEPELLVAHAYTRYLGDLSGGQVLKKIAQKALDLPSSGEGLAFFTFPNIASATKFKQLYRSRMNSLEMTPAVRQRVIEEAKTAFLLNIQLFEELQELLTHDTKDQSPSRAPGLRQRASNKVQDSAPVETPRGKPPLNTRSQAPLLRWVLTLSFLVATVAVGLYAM
Procedure: as §2
A young adult male rat was gas-anesthetized, laid on ice and systemically perfused with ice-cold 0.9% NaCl to get rid of all blood from liver. The liver was then excised on ice and transferred to a cold room (4° C.) and cut into small pieces in cold 0.9% NaCl (3 mL per gram of tissue) with surgical scissors in and placed in a 50 mL tube. The tissue chunks were homogenized with an electric tissue homogenizer and centrifuged at 150×g for […] at 4° C. Similarly, all of the following steps, including centrifugations, were performed at 4° C. The supernatant was centrifuged at 18,000×g for 10 min and further at 30,000×g for 30 min. A saturated solution of ammonium sulfate was added to the 30,000×g supernatant to attain 40% saturation and placed on ice for 10 min. The mixture was centrifuged at 10,000×g for 10 min and supernatant was recovered and transferred to a fresh tube. Sixty percent of saturation was achieved by adding saturation solution of ammonium sulfate to the supernatant. The mixed solution was centrifuged again at 10,000×g for 10 min and […]. […] The dialysate was centrifuged at 10,000 g for 10 min and pellet was discarded. The protein concentration of the supernatant was measured with Bradford reagent (BioRad laboratories, Hercules, Calif.) and adjusted to 10 mg/mL with 0.01 M KPO4, pH7.4. The supernatant was aliquoted and stored at −20° C. ready for use.
Cytosol extracts were prepared for HO activity measurement by the method of Ryter (Ryter, Kvam, Tyrrell 2000). Astroglial monolayers were washed with ice-cold PBS and scraped in ice-cold PBS-EDTA (1 mM, pH 8.0) containing 50 μg/mL protease inhibitor (AEBSF), centrifuged at 150×g at 4° C. and resuspended in 20 mM Tris-HCl (pH 7.4) and 0.25 M sucrose containing protease inhibitors. Cell suspensions were sonicated on ice 2×15 s at 20 W and centrifuged for 20 min at 4° C. at 15,000×g. Protein concentration of supernatant was measured with Bradford method. […] Reaction mixtures were incubated at 37° C. in the dark for 60 min with hard vortex every 10 min. […] HO activity was calculated as nanomoles bilirubin per milligram protein per min, assuming an extinction coefficient of 40/mM/cm in chloroform (see FIG. 8).
Cells were rinsed twice with cold PBS (pH 7.4) and scraped in iced lysis buffer consisting of 1% Nonidet P-40, 50 mM Tris.HCl (pH 7.4), 30 mM NaCl, 25 mM β-glycerophosphate, 10 mM EDTA, 10 mM EGTA, 1 mM MgCl2, and protease inhibitors (10 mM sodium fluoride, 50 μg/mL AEBBSF, 5 μg/mL leupeptin, 5 μg/mL pepstatin, 5 μg/mL aprotinin). […] Protein contents were determined using the Bradford method. […]

[5] = tested on: OVCAR-3 (human ovarian carcinoma); experiment: Ovarian carcinoma model OVCAR-3 in SCID mice; format: in vivo; details: QC-56 60 mg/kg/ip; CDDP 3 mg/kg
Description: • Species and strain: […] OVCAR-3 (human ovarian carcinoma). […] Control groups received the vehicle alone.

[6] = tested on: B16-BL6 cells (mouse melanoma); experiment: B16-BL6 melanoma lung metastasis model; format: in vivo; details: QC-56 60 mg/kg i.p.; vehicle group 101 nodules
Procedure: • Species and strain: […] B16-BL6 cells (mouse melanoma). B16-BL6 metastatic variant was derived from B16-F10. This cell variant was obtained from Dr. Linda D. Williams, Dept. of Cancer Biology, MD Anderson Cancer Center, Texas, USA. […] Cells were maintained at 37° C. in a humidified atmosphere (5% CO2, 95% air). […] Control groups received the vehicle alone.

With O=c1[nH]cc(F)c(=O)[nH]1 [5-FU, reference compound] the mouse mortality ([1]; 60 mg/kg, HCT-116 model (FIG. 25)) was “induced mortality” and the “reduction of tumor volume at the time of sacrifice compared to control” value ([1]; QC-56 60 mg/kg/ip, 5-FU 60 mg/kg/ip reduced to 40 mg/kg) was “similar”.
For CN(C)/N=N/c1[nH]cnc1C(N)=O [Dacarbazine, reference compound], the “inhibition of tumor growth compared to vehicle alone” value [2] was “approximately 24%”, the “tumor size on the day of sacrifice” value [2] was 1.30±0.23 cm^3 and the “reduction of tumor volume vs vehicle” value (SKMEL-V+ cells) was 21%.
For Cl.FC[C@@H]1CO[C@@](CCc2ccc(Cl)cc2)(Cn2ccnc2)O1 [QC-47, (2R,4S)-2-[2-(4-Chlorophenyl)ethyl]-2-[(1H-imidazol-1-yl)methyl]-4-(fluoromethyl)-1,3-dioxolane hydrochloride], the “oxidative protein damage (protein carbonyls) accruing from hHO-1 transfection” value ([3]; 6.5 μM) was “significantly attenuated”, the “dose dependence of attenuation of oxidative protein damage” value ([3]; transiently transfected rat astroglia, hydrochloride) was “significant dose dependant attenuations; also recorded: in a dose dependent manner significantly decreased” and the “HO activity in HO-1-transfected astroglia” value ([4]; 6.5 μM, 18 h, hHO-1-transfected cells, hydrochloride) was “suppressed to levels akin to those of non-transfected and sham-transfected controls; also recorded: significantly attenuated; also recorded: significantly decreased”. For the same compound, the “expression level of flag-tagged HO-1 protein” value ([4]; 6.5 μM, transiently transfected cells) was “without affecting the expression level of flag-tagged HO-1 protein” and the IC50 ([4]; concentration of QC-47 used on HO-1-transfected astroglia, stated as IC50) was 6.5 µM.
For N.N.[Cl][Pt][Cl] [cisplatin, reference compound], the “tumor size on the day of sacrifice” value [5] was 0.63±0.06 cm^3 and the “macroscopic nodules in the lungs (average)” value [6] was 60.
